Measured values from patent publication US20250091994A1, “RAS/RAF BINDING INHIBITOR COMPOUND” (NATIONAL UNIVERSITY CORPORATION KOBE UNIVERSITY, priority 2021, published 2025).

Experiments:
Format in all cases: cell-based
[1] = test system: small cell lung cancer cells SHP77 (K-RasG12V); assay: Cell growth inhibition, suspension cells SHP77; conditions: Homo sapiens, 72 hours
Procedure: (§1) The cell growth inhibitory activity of the compound of the present invention on human culture cells having active-type mutation in Ras was evaluated by the below-mentioned method using suspension cancer cells {acute lymphoblastic leukemia cells CCRF-CEM (K-RasG12D), promyelocytic leukemia cells HL60 (N-RasQ61L), acute lymphoblastic leukemia cells MOLT4 (N-RasG12C), and small cell lung cancer cells SHP77 (K-RasG12V)} and adherent cancer cells {large bowel cancer cells SW480 (K-RasG12V) and large bowel cancer cell SW620 (K-RasG12V)}.
(§2) (Case of suspension cells) The cells suspended in a medium containing 0.5% (v/v) fetal bovine serum (FBS) and each compound solution (final DMSO concentration: 1%) were seeded on a 96-well plate (2 to 4×10^4 cells/well), and the resulting mixture was then cultured at 37° C. in the presence of 5% CO2 for 72 hours.
(§3) Thereafter, the number of viable cells was measured using Cell Counting Reagent (Nacalai Tesque) in accordance with the manufacturer's instructions. Inhibition by the test compound was determined according to the following equation: […]

[2] = test system: large bowel cancer cells SW480 (K-RasG12V); assay: Cell growth inhibition, adherent cells SW480; conditions: Homo sapiens, 72 hours, read-out: SW480 (KRasG12V) % inhibition at 10 μM
Procedure: as §1
(Case of adherent cells) The cells suspended in a medium containing 10% FBS (1 to 2×10^4 cells/well) were seeded on a 96-well plate, and were then cultured at 37° C. in the presence of […]. Thereafter, the medium was exchanged with a medium containing […], to which each compound solution (final DMSO concentration: […]) had been added, and the cells were then cultured at 37° C. in the presence of […] for 72 hours.
as §3

[3] = test system: phosphorylated MEK (pMEK) in HL60 cells; assay: Ras-Raf signaling inhibition at culture cell level, pMEK; conditions: Homo sapiens, HL-60; HL60 (N-RasQ61L), 1 μM test compound, 3 hours
Procedure: (§4) The Ras-Raf signaling inhibitory activity of the compound of the present invention at a culture cell level was evaluated by the following method.
(§5) The HL60 cells described in Test Example 2 suspended in a medium containing 0.5% (v/v) FBS with each compound solution (final DMSO concentration: 1%), were seeded on a 12-well plate (2 to 4×10^5 cells/well), and the resulting mixture was then cultured at 37° C. in the presence of 5% CO2 for 3 hours.
(§6) After completion of the cell culture, proteins were extracted from the cells, using RIPA Buffer (Nacalai Tesque) containing a mixture of protease inhibitors and phosphatase inhibitors. An equivalent amount of protein was separated by standard SDS-PAGE and was then transferred onto a PVDF membrane. In order to detect the activation (phosphorylation) of MEK and ERK, downstream molecules of the Ras-Raf signaling pathway, the membrane was probed with 1000-fold diluted primary antibodies {phosphorylated MEK (pMEK: #9121), phosphorylated ERK (pERK: #9101), total MEK (tMEK: #9122), and total ERK (tERK: 9102); all from Cell signaling}, and then with a 1000-fold diluted horseradish peroxidase-labeled secondary antibody against rabbit immunoglobulin G. The immunoreactive signals were colored with EzWestLumi One (ATTO), and were then detected by Fusion FX (Vilber). Signal intensity was quantified by pixel counting. Inhibition by the test compound was determined according to the following equation: […]

[4] = test system: acute lymphoblastic leukemia cells CCRF-CEM (K-RasG12D); assay: Cell growth inhibition, suspension cells CCRF-CEM; conditions: Homo sapiens, 72 hours
Method in brief: (§7)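 Suspension cells, 2 to 4×10^4 per well, cultured with compound in medium with 0.5% FBS (1% DMSO final) for 72 h at 37° C, 5% CO2. Viable cells counted with Cell Counting Reagent; inhibition calculated relative to controls.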

[5] = test system: promyelocytic leukemia cells HL60 (N-RasQ61L); assay: Cell growth inhibition, suspension cells HL60; conditions: Homo sapiens, HL-60, 72 hours
Method in brief: as §7

[6] = test system: phosphorylated ERK (pERK) in HL60 cells; assay: Ras-Raf signaling inhibition at culture cell level, pERK; conditions: Homo sapiens, HL-60; HL60 (N-RasQ61L), 1 μM test compound, 3 hours
Procedure: as §4, §5, §6

[7] = test system: Vemurafenib-resistant malignant melanoma cells HT 144R (BRafV600E); assay: Cell growth inhibition, drug-resistant malignant melanoma HT144R; conditions: Homo sapiens, in the presence of 1 μM PLX (Vemurafenib), 72 hours
Procedure: (§8) The human malignant melanoma cell lines A375 and HT 144, each having BRafV600E mutation, were cultured in a medium containing 10% FBS at 37° C. in the presence of 5% CO2. At the time point in which the cells became confluent, 1 μM Vemurafenib, a BRaf inhibitor, was added to the medium, and the cells were then cultured in the presence of Vemurafenib for 1 month or more (during which the medium was exchanged every 1 week), so as to acquire Vemurafenib-resistant malignant melanoma cells A375R and HT 144R. The resulting resistant cells were suspended in a medium containing 10% FBS, and then seeded on a 96-well plate to an amount of 1 to 2×10^4 cells/well. The cells were cultured at 37° C. in the presence of 5% CO2 overnight. Thereafter, the medium was exchanged with a medium containing 0.5% FBS, to which each compound solution (final DMSO concentration: 1%) and 1 μM Vemurafenib had been added, and the cells were then cultured at 37° C. in the presence of 5% CO2 for 72 hours.
as §3
(§9) Hereafter, Inhibition (%) by 3.3 μM compound is shown.

[8] = test system: acute lymphoblastic leukemia cells MOLT4 (N-RasG12C); assay: Cell growth inhibition, suspension cells MOLT4; conditions: Homo sapiens, MOLT-4; 3.3 μM (*), 72 hours; read-out: MOLT-4 (NRasG12C) % inhibition at 3.3 μM (*)
Procedure: as §1, §2, §3

[9] = test system: Vemurafenib-resistant malignant melanoma cells A375R (BRafV600E); assay: Cell growth inhibition, drug-resistant malignant melanoma A375R; conditions: Homo sapiens, in the presence of 1 μM PLX (Vemurafenib), 72 hours
Procedure: as §8, §3, §9

[10] = test system: large bowel cancer cell SW620 (K-RasG12V); assay: Cell growth inhibition, adherent cells SW620; conditions: Homo sapiens, SW-620; 1 μM, 72 hours; read-out: SW620 (KRasG12V) % inhibition at 1 μM
Method in brief: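 Adherent cells, 1 to 2×10^4 per well, grown overnight in 10% FBS, then exposed to compound in low-serum medium […] for 72 h at 37° C. Viable cells counted with Cell Counting Reagent; inhibition calculated relative to controls.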

Structure (SMILES) | inhibition at 3.3 µM ([1]; 3.3 μM (*), read-out: SHP77 (KRasG12V) % inhibition at 3.3 μM (*)) [%] | inhibition at 10 µM [2] [%] | inhibition at 1 µM [3] [%] | inhibition at 3.3 µM ([4]; 3.3 μM (*), read-out: CCRF-CEM (KRasG12D) % inhibition at 3.3 μM(*)) [%] | inhibition at 1 µM ([5]; 1 μM, read-out: HL-60 (NRasQ61L) % inhibition at 1 μM) [%] | inhibition at 1 µM [6] [%] | inhibition at 3.3 µM [7] [%] | inhibition at 3.3 µM [8] [%] | inhibition at 1 µM ([1]; 1 μM, read-out: SHP77 (KRasG12V) % inhibition at 1 μM) [%] | inhibition at 3.3 µM [9] [%] | inhibition at 1 µM ([4]; 1 μM, read-out: CCRF-CEM (KRasG12D) % inhibition at 1 μM) [%] | inhibition at 10 µM ([5]; 10 μM (***), read-out: HL-60 (NRasQ61L) % inhibition at 10 μM (***)) [%] | inhibition at 1 µM [10] [%]
CC(=O)N1/C(=C/c2ncc(C(=O)N3CCOCC3)s2)C(=O)c2ccccc21 [Example 68, (E)-1-acetyl-2-((5-(morpholine-4-carbonyl)thiazol-2-yl)methylene)-indolin-3-one] | 67 | 52 | 68 | 80 | 37 | 93 |  |  |  |  |  |  | 
COc1cc(/C=C2/C(=O)c3ccccc3N2C(C)=O)ccc1OCC(N)=O [Example 1, (Z)-2-(4-((1-acetyl-3-oxoindolin-2-ylidene)methyl)-2-methoxyphenoxy)-acetamide] |  | 50 | 30 |  |  | 61 | 66 | 88 | 73 | 28 | 51 | 95 | 53
